# In patent publication US12173039B1, “TPL2 inhibiting agents, uses thereof, and detection of TPL2” (Washington University, priority 2021, dated 2024):
# Entries after “also recorded” stand apart in the source; their conditions may differ.
# Experiments:
# [1] = patients with refractory hematologic malignancies; cited from earlier work
# [2] = system: IL1B; test: qRT-PCR of IL1B in HEK T/tH KRAS^G12V cells; type: cell-based, human; settings: 16 hours
# Method: Total RNA was isolated using RNAzol RT (Sigma), cDNA was generated using High Capacity cDNA reverse transcription kit (Thermo Fisher Scientific, 4368814) and qPCR was performed using SYBR-Green reagent (Applied Biosystems, cat #4309155). All experiments were performed in biological duplicates or triplicates (n=2,3).
# [3] = system: serum-response element (SRE); test: Serum-response element (SRE) luciferase reporter assay; type: cell-based, human; settings: for SRE reporter activity (MAPK cascades): KRAS-mutant HPAC, MIA Paca-2, and Pa01C cells
# Method: (§1) Cells stably expressing plasmid encoding serum-response-element (SRE) or NFKB promoter driven Firefly luciferase and constitutive Renilla luciferase were seeded at equal density per well and treatment was initiated the next day for 16-24 duration. Alternatively, 293T reporter cells were transfected in duplicate or triplicate with 1 μg of appropriate plasmid DNA. Medium was replaced 16-18 hours later and at 48 hours post-transfection reporter activity was measured using Dual-Glo® Luciferase Assay System. Data was acquired using SpectraMax i3Microplate Reader and analysis was performed by calculating ratio of firefly:renilla. Values were normalized to control and graphed using GraphPad Prism v7/8 software.
# [4] = system: Hs695T cells; test: Drug response and viability assay, Hs695T; type: cell-based, human
# Method: Cells were seeded at 1500-2500 cells per well in triplicates, in 96 well format. Next day, appropriate inhibitor was added in serial dilution from 1.00×102 μM or indicated single doses. Vehicle (DMSO) was added to match volume of inhibitor used for highest concentration. After 96-120 hours, 5× AlamarBlue® reagent (resazurin sodium salt, Sigma) was added to wells and incubated for 2-4 hours. Fluorescence at 585 nm (excitation 555 nm) was measured by SpectraMax i3 Microplate Reader. Raw values were normalized to vehicle, analyzed and graphed using GraphPad Prism v7/8 software.
# [5] = system: TLR9 and p-IRAK4 interaction; test: Proximity ligation assay (PLA); type: cell-based, human; settings: 3 PDAC lines; 10 μM, 16 hours
# Method: PLA was performed using Duolink® in situ Red Starter Kit Mouse/Rabbit (DUO92101, Sigma) per manufacturer's protocol. Briefly, cells were seeded on cover slips in 6 well plate at ˜50% confluency per well. Next day cells were treated with SN-38 (10 μM) and 16 hours later PLA was performed using p-IRAK4 (ABNOVA) and TLR9 (CST) primary antibodies. Stained cells were imaged using Nikon C2+ fluorescent microscope paired with NIS-Element software. Number of puncta per field was quantitated for six 400× fields per condition using Find Maxima tool in ImageJ software. Data was exported and graphed in GraphPad Prism v8.
# [6] = system: p-MEK, p-ERK, and p-RSK; test: Immunoblots of MAPK pathway markers in human cell lines; type: cell-based; settings: for p-MEK and p-ERK levels: serum-free
# Method: (§2) Standard immunoblotting procedure was followed. Cells were washed twice with ice-cold 1×PBS and lysed with ice-cold triton-X lysis buffer (25 mM Tris, pH 7.4, 150 mM NaCl, 5 mM EDTA, 1% Triton-X) containing 1× protease (10 μg mL-1 leupeptin, 700 ng mL-1 pepstatin, 170 ng mL-1 aprotinin, 1 mM PMSF) and phosphatase (10 mM NaF, 1 mM Na3VO4, 1 mM Na4P2O^7, 5 mM Na b-glycerophosphate) inhibitors. Lysates were quantified by Bradford assay (Thermo Scientific), normalized for concentration, and reduced and denatured with 6×SDS sample buffer followed by boiling for 5 minutes. 20-40 μg of protein per sample was resolved by SDS-PAGE, blotted on PVDF membrane and probed with primary antibodies (Cell Signaling Technologies: p-ERK1/2 (#4370), p-MEK1/2 (#9154), ERK1/2 (#4695), MEK1/2 (#8727), p-p105 (#4806), NFS2KB1 p105/p50 (#3035), p-IRAK4 (#11927), IRAK4 (#4363), ubiquitin (#43124), anti-HA (#3724), p-p90RSK (#11989), RSK1/2/3 (#9355), p-TPL2 (#4491), PARP (#9532), p-B-RAF S445 (#2696), BRAF (#9433S). Santa Cruz Biotechnology: GAPDH (#sc-32233), p-p65 S536 (#sc101752). Thermo Fisher Scientific: p-55 TPL2 (#PA5-36635). EMD Millipore: IRAK4 (#07-418). R&D systems: TPL2/MAP3K8 (#MAB4586). Novus Biologicals: anti-AU1 (#NB600-453). Abcam: p-p65 S276 (#ab194726)). Membranes were incubated with appropriate HRP-conjugated secondary antibodies (anti-mouse or anti-rabbit, (1:5000 dilution), Jackson Laboratory) and imaged using chemiluminescent substrate. Additional steps for immunoprecipitation include incubation of soluble fraction lysate with anti-HA magnetic beads (Thermo Scientific cat #88837) overnight at 4° C., washing, and elution using 1×SDS sample buffer and boiling as mentioned in manufacturer's protocol.
# [7] = system: p-p105, p-p65; test: Immunoblots of NF-κB markers in PDAC cells; type: cell-based, human
# Method: as §2
# [8] = system: IGROV1 cells; test: Cell proliferation assay, IGROV1; type: cell-based, human
# Method: (§3) Cells were seeded in triplicate or quadruplicate at indicated density per well. When applicable, appropriate drug compound was added to cells the next day. Viable cells were counted using trypan blue dye exclusion and BioRad TC20 Automated Cell Counter at each time point.
# [9] = system: KRAS mutant cell lines; test: Clonogenic 2D assay, KRAS-mutant and PDAC lines; type: cell-based, human; settings: HPNE-KRAS^G12D, HEKT/tH-KRAS^G12V, conventional PDAC lines, PDCLs
# Method: (§4) Cells were seeded at 500-1000 cells per well (6 well plate format) or 200-1000 cells per well (12 well format) in 10% serum media. For drug treatment, compound was added at time of seeding at indicated concentration. Media was replenished as needed over course of incubation. After 3-5 weeks, colonies were fixed with 4% formaldehyde, stained with 0.5% crystal violet and scanned using document scanner. Images were quantified using particle analyzer on ImageJ software and values were normalized to vehicle.
# [10] = system: poly (ADP-ribose) polymerase (PARP); test: Immunoblot of PARP cleavage; type: cell-based, human; settings: PDAC lines; cotreatment with SN-38, 16 hours
# Method: as §2, with “Membranes were incubated with appropriate HRP-conjugated secondary antibodies (anti-mouse or anti-rabbit, (1:5000 dilution), Jackson Laboratory) and imaged using chemiluminescent substrate. Additional steps for immunoprecipitation include incubation of soluble fraction lysate with anti-HA magnetic beads (Thermo Scientific cat #88837) overnight at 4° C., washing, and elution using 1×SDS sample buffer and boiling as mentioned in manufacturer's protocol.” left out
# [11] = system: HPNE-KRAS^G12D cells, HEKT/tH-KRAS^G12V cells, conventional PDAC lines, and PDCLs; test: Anchorage independent soft agar growth assay, human KRAS-mutant lines; type: cell-based; settings: HPNE-KRAS^G12D, HEKT/tH-KRAS^G12V, conventional PDAC lines, PDCLs
# Method: Cells were seeded at 5000-15000 cells in 0.3% noble agar-DMEM suspension per well, in triplicate, in 24 well plate. For drug treatment, compound was added to cell suspension at 1× concentration. Seeded cells were fed with fresh 0.6% agar-DMEM mix once every 7-12 days. […] After 3-6 weeks, colonies were counted under microscope and imaged. Colony count was normalized to control and graphed in GraphPad Prism v7/8.
# [12] = system: Hs695T cells; test: Cell proliferation assay, Hs695T; type: cell-based, human
# Method: as §3
# [13] = system: orthotopic KI tumors; test: Orthotopic implantation of murine KI PDAC cells; type: in vivo; settings: KI tumors in syngeneic FVB/NJ mice; 30 mg/kg, 14 days
# Method: For subcutaneous xenograft, approximately 5 million cells per flank were implanted into 6-week-old athymic nude mice (NU/J, Jackson Laboratory). When applicable, treatment with drug compound was initiated when tumors were palpable. FIRINOX (25 mg/kg 5-FU, 17.5 mg/kg irinotecan, and 3.35 mg/kg oxaliplatin) was administered via intraperitoneal injection weekly in 50 μL PBS. TPL2i was administered by intraperitoneal injection at 10 mg/kg in 40 μL DMSO, 5 days per week. Mice in the control group were treated with vehicle. Tumor volume was calculated as width^2×(length×0.5). Tumors were measured and mice were weighed 3 days per week. For orthotopic implantation, murine KI PDAC cells were injected into the pancreas of 7-week-old female FVB/NJ mice (Jackson Laboratory), as previously described (see e.g., Kim et al. (2009) Nat Protoc. 4 (11): 1670-1680). Six days after implantation, treatment with vehicle, FIRINOX (same dose as above), or TPL2i (30 mg/kg) was initiated for 14 days, at which time all mice were sacrificed. In vivo tumor progression was monitored using ultrasound (VScan, GE Healthcare) with final day representative tumor images shown.
# [14] = system: NF-κB reporter activity; test: NF-κB luciferase reporter assay; type: cell-based, human; settings: KRAS-mutant PDAC cells (PANC-1); serial dilutions from 20 μM; 18 hours
# Method: as §1
# [15] = system: LPS-induced TNF-α production; settings: human monocytes; cited from earlier work
# [16] = system: IGROV1 cells; test: Clonogenic 2D assay, IGROV1; type: cell-based, human
# Method: as §4
# [17] = HPAC cells, 16 hours, 10% serum
compound,measurement,setting,value
"Cc1cc(-c2nc(C(=O)Nc3cc4oc(N5CCOCC5)nc4nc3N3CC[C@@H](O)C3)co2)ccn1 [CA-4948, N-[5-[(3R)-3-hydroxypyrrolidin-1-yl]-2-morpholin-4-yl-[1,3]oxazolo[4,5-b]pyridin-6-yl]-2-(2-methylpyridin-4-yl)-1,3-oxazole-4-carboxamide]",patients developing grade 1-2 neutropenia,[1],23%
same,tolerability in clinical trial,[1],rather well tolerated
CS(=O)(=O)N1CCN(Cc2cc3nc(-c4cccc5[nH]ncc45)nc(N4CCOCC4)c3s2)CC1 [GDC-0941],IL-1B production (IL1B expression by qRT-PCR),[2],no effect
O=C(Nc1cc(C(F)(F)F)cc(C(F)(F)F)c1)c1cc(Cl)ccc1O [IMD-0354],SRE-driven luciferase reporter activity,[3]; HPAC cells,dose-dependent suppression
CCCS(=O)(=O)Nc1ccc(F)c(C(=O)c2c[nH]c3ncc(-c4ccc(Cl)cc4)cc23)c1F [PLX4032],viability,[4],modest growth suppressive effect
CCCS(=O)(=O)Nc1ccc(F)c(C(=O)c2c[nH]c3ncc(Cl)cc23)c1F [PLX-4720],SRE reporter activity (MAPK cascades),[3],paradoxically hyperactivate
CCc1c2c(nc3ccc(O)cc13)-c1cc3c(c(=O)n1C2)COC(=O)[C@]3(O)CC [SN-38],TLR9 and p-IRAK4 interaction,[5],markedly increased
same,"induction of p-ERK, p-MEK, p-RSK, p-TPL2 and p-IRAK4","[6]; multiple PDAC lines, 10 μM, 16 hours, compared with 4 other chemotherapeutic agents",most potent in inducing
same,NF-κB induction (p-p105),[7]; PDAC lines after chemotherapy,also induced
"N#Cc1cnc2cnc(NCc3cccnc3)cc2c1Nc1ccc(F)c(Cl)c1 [TPL2i, 4-[(3-Chloro-4-fluorophenyl)amino]-6-[(3-pyridinylmethyl)amino]-1,7-naphthyridine-3-carbonitrile]",proliferation,[8],significantly decreased
same,viability,[4],suppressed
same,2D clonogenic growth,[9],dose-dependently suppressed
same,PARP cleavage,[10],increased
same,3-dimensional (3D) AI growth,[11],dose-dependently suppressed
same,p-MEK and p-ERK levels,"[6]; 293T cells expressing KRAS^G12V, 24 hours",dose-dependently suppressed
same,p-MEK and p-ERK,"[6]; 293T cells transfected with oncogenic BRAF^V600E, 24 hours",neither TPL2i nor IRAK4i suppressed
same,p-MEK and p-ERK / MAPK activity,"[6]; BxPc-3 PDAC line (BRAF mutation, WT KRAS)",neither TPL2i nor IRAK4i suppressed and not
same,"conditioned medium-induced p-TPL2, p-IRAK4, p-MEK, and p-ERK levels",[6]; HEK T/tH cells with CM from HEK-T/tH KRAS^G12V cells,completely blocked
same,Gemcitabine-induced p-MEK and p-ERK levels,[6]; [17],suppressible
same,p-ERK and p-MEK / MAPK activity,"[6]; Hs695T cells (BRAF^V600E, MAP3K8^E188K), 24 hours, 10% serum",significantly suppressed
same,"p-MEK, p-ERK, and p-RSK / MAPK activity","[6]; IGROV1 (MAP3K8^R442H), 1 μM, 2 hours",completely blocked; also recorded: completely abolished
same,"SN-38-induced p-MEK, p-ERK, and p-RSK","[6]; PDAC lines, cotreatment, 16 hours",significantly attenuated
same,p-BRAF,"[6]; Pa01C cells, incremental doses",without affecting
same,p-MEK and p-ERK,"[6]; Pa01C cells, incremental doses",dose-dependently blocked
same,p-MEK and p-ERK levels,"[6]; multiple KRAS-mutant PDAC lines, 36 hours",dose-dependently suppressed
same,in vitro proliferation,[12],significantly suppressed
same,Gemcitabine-induced SRE activity,[3]; [17],suppressible
same,SRE reporter activity (MAPK cascades),[3],dose-dependently suppressed
same,growth of orthotopic tumors,[13],effective in significantly suppressing growth
same,NF-κB reporter activity,[14],dose-dependently suppressed
same,p-p65 at S276,[7]; 3 out of 4 cell lines,potently suppressed
same,p50 processing,[7]; PDAC cell lines,did not lead to increased p50 processing
same,p-p65 at S536,[7]; PDAC cell lines,not
same,p-p105,"[7]; PDAC cell lines, TPL2 inhibition",dose-dependently suppressed
same,p-p105 in SN-38-treated cells,[7]; Pa01C cells,additionally suppressed
same,LPS-induced TNF-α production,[15],can suppress
same,colony forming ability,[16],significantly decreased
CC(C)(C)c1nc(-c2cccc(NS(=O)(=O)c3c(F)cccc3F)c2F)c(-c2ccnc(N)n2)s1 [dabrafenib],SRE reporter activity (MAPK cascades),[3],paradoxically hyperactivate
CC(C)Nc1cc(-c2c[nH]c(C(=O)N[C@H](CO)c3cccc(Cl)c3)c2)c(Cl)cn1 [ulixertinib],IL-1B production (IL1B expression by qRT-PCR),[2],significantly abrogated
recombinant hIL-1B: recombinant human IL-1B,"p-IRAK4, p-TPL2, p-MEK, p-ERK, and p-RSK","[6]; HEK T/H, HPAC, and Pa01C cells, 100 ng/ml",upregulated
